# Columns and labels:
# [1] = tested on: patient positive for anti-NR1 NMDAR antibodies; assay: Tower of London (ToL); assay type: in vivo, human; details: post-6 weeks D-serine
# Method: (§1) The trial consisted of two periods, starting with a 2 week lead-in/stabilization period (−2-0) following which the patient was entered in the second period of the study which consisted of a 6 week (0-6), open-label, fixed dose therapy phase. During this phase, the patient received adjuvant treatment with DSR, whose dose was increased from 1500 mg/day (week 1) to 2000 mg/day (weeks 2 and 3) to 3000 mg/day (weeks 4 and 5) and to 4000 mg/day (week 6). The doses of the ongoing medication received by the patient remained fixed throughout the study and no changes in medication were performed.
# (§2) In addition, cognitive performance was assessed pre- and post DSR treatment. For this purpose, a 1.5-hour neurocognitive assessment battery (nine computerized and two paper/pencil tests) was employed that measures accuracy and speed of performance in major cognition domains, including attention/vigilance, planning, short-term and working memory, decision making, abstraction and mental flexibility. All the tests were formatted like games and puzzles, and were administered to the patient as part of the comprehensive neuropsychiatric assessment at baseline and the end of study. The neurocognitive battery included the 1) Test of Attentional Vigilance (TOAV, (Forbes, 1998, Journal of Clinical Psychology 54:461-476; Greenberg, 1993, Journal of Child Psychology and Psychiatry 34: 1019-30)); 2) Tower of London (TOL, (Shailice, 1982, Specific impairments of planning Philosophical Transactions of the Royal Society of London. Series B, Biological Sciences 298:199-209); 3-4) Digit Span Test (DST, forward and backward (Wechsler 1997, The Wechsler adult intelligence scale-III. San Antonio, Tex.: Psychological Corporation; Kaplan 1991, The WAIS-R as a neuropsychological instrument. San Antonio, Tex.: The Psychological Corporation; Lamar et al., 2007, Neuropsychologia 45:245-54; Lamar et al., 2008, Neuropsychologia 46:2597-601)); 5-6) Corsi Block Tapping Test (CBTT, forward and backward, (Corsi, 1972, Dissertation Abstracts International. 34:819B; Kessels et al., 2000, Applied Neuropsychology 7:252-58, Kessels et al., 2008, Assessment 15:426-34)); 7) Flanker Task (Erikson and Eriksen, 1974; Perception & Psychophysics 25: 249-63, Stins et. al., 2007, Advances in Cognitive Psychology 3:389-96); 8) Time Wall (Perez et al., 1987, Unified Tri-services cognitive performance assessment battery: review and methodology; DTIC Document ADA181697, http://www.dtic.mil/dtic/tr/fulltext/u2/a81697.pdf); and Wisconsin Card Sort Test (WCST, (Berg, 1948, J Gen Psychol39:15-22; Nelson, 1976, Cortex 12:313-24)). […]
# [2] = tested on: patient positive for anti-NR1 NMDAR antibodies; assay: Trail-Making-Test (TMT) part A and part B; assay type: in vivo, human; details: post-6 weeks D-serine
# Method: as §1
# In addition, cognitive performance was assessed pre- and post DSR treatment. For this purpose, a 1.5-hour neurocognitive assessment battery (nine computerized and two paper/pencil tests) was employed that measures accuracy and speed of performance in major cognition domains, including attention/vigilance, planning, short-term and working memory, decision making, abstraction and mental flexibility. All the tests were formatted like games and puzzles, and were administered to the patient as part of the comprehensive neuropsychiatric assessment at baseline and the end of study. […]
# [3] = tested on: patient positive for anti-NR1 NMDAR antibodies; assay: Side effects and tolerability (UKU Side Effect Rating Scale, medical work-up), D-serine clinical trial; assay type: in vivo, human; details: throughout the study; 1500 to 4000 mg/day over 6 weeks, adjuvant
# Method: as §1
# The patient underwent prior to entering the study and at study weeks 3 and 6 a medical work-up including complete medical history, and routine clinical blood work, including blood count+differential, lipids, and glucose levels, kidney, thyroid, and liver function parameters, urinalysis, and blood pressure measurements. Abdominal ultrasound was performed prior to study entry and electroencephalogram (EEG) and brain magnetic resonance imaging (MR1) were obtained pre- and post-DSR administration.
# The assessment procedures used in the study included clinical and neurocognitive examinations. Motor and psychiatric symptoms as well as side-effects were rated biweekly throughout the study. […] In conjunction with UKU ratings, patient's vital signs and body weight were monitored throughout the study.
# [4] = doses of ≤4 g/day; cited from earlier work
# [5] = tested on: patient positive for anti-NR1 NMDAR antibodies; assay: Flanker Task; assay type: in vivo, human; details: post-6 weeks D-serine
# Method: as §1
# In addition, cognitive performance was assessed pre- and post DSR treatment. For this purpose, a 1.5-hour neurocognitive assessment battery (nine computerized and two paper/pencil tests) was employed that measures accuracy and speed of performance in major cognition domains, including attention/vigilance, planning, short-term and working memory, decision making, abstraction and mental flexibility. All the tests were formatted like games and puzzles, and were administered to the patient as part of the comprehensive neuropsychiatric assessment at baseline and the end of study. The neurocognitive battery included the 1) Test of Attentional Vigilance (TOAV, (Forbes, 1998, Journal of Clinical Psychology 54:461-476; Greenberg, 1993, Journal of Child Psychology and Psychiatry 34: 1019-30)); 2) Tower of London (TOL, (Shailice, 1982, Specific impairments of planning Philosophical Transactions of the Royal Society of London. Series B, Biological Sciences 298:199-209); 3-4) Digit Span Test (DST, forward and backward (Wechsler 1997, The Wechsler adult intelligence scale-III. San Antonio, Tex.: Psychological Corporation; Kaplan 1991, The WAIS-R as a neuropsychological instrument. San Antonio, Tex.: The Psychological Corporation; Lamar et al., 2007, Neuropsychologia 45:245-54; Lamar et al., 2008, Neuropsychologia 46:2597-601)); 5-6) Corsi Block Tapping Test (CBTT, forward and backward, (Corsi, 1972, Dissertation Abstracts International. 34:819B; Kessels et al., 2000, Applied Neuropsychology 7:252-58, Kessels et al., 2008, Assessment 15:426-34)); 7) Flanker Task (Erikson and Eriksen, 1974; Perception & Psychophysics 25: 249-63, Stins et. al., 2007, Advances in Cognitive Psychology 3:389-96); 8) Time Wall (Perez et al., 1987, Unified Tri-services cognitive performance assessment battery: review and methodology; DTIC Document ADA181697, http://www.dtic.mil/dtic/tr/fulltext/u2/a81697.pdf); and Wisconsin Card Sort Test (WCST, (Berg, 1948, J Gen Psychol39:15-22; Nelson, 1976, Cortex 12:313-24)). In addition to the nine computerized tests, the patient completed two paper/pencil tests: 10-11) part A and part B of the Trail-Making-Test (TMT, (Reitan, 1958, Percept. Mot Skills 8:271-76; Reitan, 1992 Trail Making Test: Manual for administration and scoring. Tucson, Ariz.: Reitan Neuropsychology Laboratory)) according to the guidelines presented by Spreen and Strauss (1998)). All neurocognitive testing was completed in a private and quiet setting to limit any distractions.
# [6] = tested on: patient positive for anti-NR1 NMDAR antibodies; assay: Digit Span Test (DST), forward and backward; assay type: in vivo, human; details: post-6 weeks D-serine
# Method: as §1, §2
# [7] = pre-treatment subject unable to complete task
structure (smiles),measurement,setting,value
N[C@H](CO)C(=O)O [D-serine],"ToL correctly solved trials, total (0-12)",[1]; pre-treatment 6,4
same,"ToL preplanning time, mean ± SD",[1]; pre-treatment 15.48 ± 4.43,11.24 ± 4.73 s
same,"ToL movement execution time, mean ± SD",[1]; pre-treatment 22.57 ± 11.998,19.30 ± 15.42 s
same,ToL total time (0-720 seconds),[1]; pre-treatment 456.582,366.415 s
same,TMT Part A,[2]; pre-treatment 42,60.71 s
same,TMT Part B,[2]; pre-treatment 102,86.35 s
same,Side effects,[3],no side effects were registered
same,Tolerability of DSR treatment,[3],well tolerated
same,Adverse events,[4],No significant adverse events
same,"Flanker Task Incongruous accuracy, mean ± SD",[5]; pre-treatment 0.450 ± 0.499,0.575 ± 0.494 proportion correct
same,"Flanker Task Congruous accuracy, mean ± SD",[5]; pre-treatment 0.475 ± 0.499,0.65 ± 0.476 proportion correct
same,"Flanker Task Neutral accuracy, mean ± SD",[5]; pre-treatment 0.475 ± 0.499,0.65 ± 0.476 proportion correct
same,"Flanker Task Congruous response time, mean ± SD",[5]; pre-treatment 725.03 ± 130.03,651.93 ± 130.16 milliseconds
same,"Flanker Task Neutral response time, mean ± SD",[5]; pre-treatment 732.18 ± 127.96,688.23 ± 99.19 milliseconds
same,"Flanker Task Incongruous response time, mean ± SD",[5]; pre-treatment 737.38 ± 131.34,713.3 ± 102.14 milliseconds
same,DST Forward Span Length (3-9),[6]; pre-treatment 6,7
same,DST Forward Number Correct (0-14),[6]; pre-treatment 8,9
same,DST Backward Number Correct (0-14),[6]; [7],3
same,DST Backward Span Length (3-9),[6]; [7],4
